Measured values from patent US10947598B2, “Methods for determining the metabolic status of lymphomas” (INSERM (Institut National de la Sante et de la Recherche …, priority 2015, dated 2021).
Entries after “also recorded” stand apart in the source; their conditions may differ.

Tests used:
[1] = system: Eμ-Myc cells (mouse primary B lymphoma cells), gapdh^low vs gapdh^high; test: Cell death assay (DAPI staining, flow cytometry); assay type: cell-based
Experimental: C57BL/6 Eμ-Myc transgenic mice were purchased from the Jackson Laborator.
Eμ-Myc cells (0.2×10^6) were seeded in 96 well-plates in the presence or absence of 200 μM of phenformin (Sigma) for 24 hours and 48 hours. Cells were then labeled with DAPI (Molecular Probes; 0.5 μg/mL) and analyzed immediately by flow cytometry using a MACSQuant Analyzer (Miltenyi Biotec).

[2] = system: Eμ-Myc cells (mouse primary B lymphoma cells), gapdh^low vs gapdh^high; test: Proliferation assay (proliferation index, DAPI exclusion); assay type: cell-based; conditions: phenformin 50 μM, 24 and 48 hours
Experimental: Mouse primary Eμ-Myc clones (B lymphoma cells) obtained from lymphomas of different C57BL/6 Eμ-Myc transgenic mice were isolated as described previously (Lindemann et al., 2007) and maintained in DMEM supplemented with 10% FCS, 2-mercaptoethanol (50 μM), L-asparagin (0.37 mM) and HEPES (pH 7.4, 10 mM). C57BL/6 Eμ-Myc transgenic mice were purchased from the Jackson Laborator.
Eμ-Myc cells (0.2×10^6) were seeded in 96 well-plates in the presence or absence of 50 μM of Phenformin for 0, 24 and 48 hours. Number of living and dead cells was counted using DAPI staining exclusion by flow cytometry (MACSQuant Analyser, Miltenyi Biotec). Proliferation index were calculated by dividing the number of living cells obtained for each day by the one obtained the day of seeding (day 0).

[3] = system: Eμ-Myc-gapdh^low lymphoma; test: Animal study: lymphoma transfer of Eμ-Myc-gapdh^low cells into syngeneic C57BL/6 mice; assay type: in vivo, mouse; conditions: Eμ-Myc-gapdh^low-bearing mice; 200 mg/kg/day phenformin in drinking water for 12 days; FIG. 5
Experimental: Lymphoma transfer of a isolated Eμ-Myc clone was realized into syngeneic, nontransgenic, 6-week-old C57BL/6 females by tail vein injection of 0.1×10^6 viable Eμ-Myc lymphoma cells per recipient mouse (in 150 μL of sterile PBS). Phenformin treated group received 200 mg/kg/day phenformin in the drinking water for 12 days. Phenformin powder was dissolved every two days in the drinking water, taking into account the mouse body weight and the volume of water consumed each day. Untreated mice (controls) received water (n=10 mice/group). Food was given ad libitum. The first signs of the pathology were determined by inguinal lymph node palpation and analyses of blood sample with Hemavet 950FS (Drew Scientific, INC, France). Progression-free survival was determined by the time between the iv injection of the cell and the appearance of enlarged lympho nodes. Lymphoma-bearing animals were killed by cervical dislocation as soon as they presented signs of illness. Upon sacrifice all lymph node tumors and spleen are immediately collected and weighted. All mice were maintained in specific pathogen-free conditions and experimental procedures were approved by the Institutional Animal Care and Use Committee and by the regional ethics committee (PEA232 from Comité Institutionnel d'Ethique Pour l'Animal de Laboratoire—AZUR).

Compound | Sensitivity to phenformin (cell death) ([1]; Eμ-Myc-gapdh^high cells silenced for gapdh (shgapdh) vs control, phenformin 100 μM, 24 and 48 hours, FIG. 4A) | Sensitivity to phenformin (cell death) ([1]; Eμ-Myc-gapdh^low vs Eμ-Myc-gapdh^high clones, phenformin 200 μM, 24 hours, FIG. 3A) | Sensitivity to phenformin (proliferation index) ([2]; Eμ-Myc-gapdh^high cells silenced for gapdh (shgapdh) vs control, FIG. 4B) | Sensitivity to phenformin (proliferation index) ([2]; Eμ-Myc-gapdh^low vs Eμ-Myc-gapdh^high clones, FIG. 3B) | B lymphoma progression (progression-free survival, size of axillary lymphomas and spleen) [3] | Sensitivity to L-asparaginase (cell death) ([1]; Eμ-Myc-gapdh^high cells silenced for gapdh (shgapdh) vs control, L-asparaginase 0.3 UI/ml, 24 hours, FIG. 4C) | Sensitivity to L-asparaginase (cell death) ([1]; Eμ-Myc-gapdh^low vs Eμ-Myc-gapdh^high clones, L-asp 0.3 UI/ml, 1.0 UI/ml, 24 hours, FIG. 3C)
[H]/N=C(/N)N/C(=N/[H])NCCc1ccccc1 [phenformin] | more sensitive; also recorded: sensitizes | more sensitive | more sensitive | more sensitive | reduced |  | 
L-asparaginase |  |  |  |  |  | more sensitive; also recorded: sensitizes | more sensitive
